From PMC6201195, “The Xylulose 5-Phosphate/Phosphate Translocator Supports Triose Phosphate, but Not Phosphoenolpyruvate Transport Across the Inner Envelope Membrane of Plastids in Arabidopsis thaliana Mutant Plants” (Frontiers in Plant Science, 2018)
Each block holds one molecule with its values, some of them ahead of it.

Experiments:
[1] = target: T1, XPT (xylulose 5-phosphate/phosphate translocator) (Arabidopsis thaliana, UniProt Q9LF61); assay: inhibition of homologous […]/[…] exchange in proteoliposomes with reconstituted yeast membranes; format: biochemical; conditions: external pH 7.0; 0.14 mM 32Pi; hyperbolic fit; alternative transport substrate
T1 construct: full-length XPT cDNA, His-tag (pYES-DEST52), expressed in Saccharomyces cerevisiae InvSC; yeast membranes reconstituted into proteoliposomes, tag kept
T1 sequence (Q9LF61 1-417 limits assumed): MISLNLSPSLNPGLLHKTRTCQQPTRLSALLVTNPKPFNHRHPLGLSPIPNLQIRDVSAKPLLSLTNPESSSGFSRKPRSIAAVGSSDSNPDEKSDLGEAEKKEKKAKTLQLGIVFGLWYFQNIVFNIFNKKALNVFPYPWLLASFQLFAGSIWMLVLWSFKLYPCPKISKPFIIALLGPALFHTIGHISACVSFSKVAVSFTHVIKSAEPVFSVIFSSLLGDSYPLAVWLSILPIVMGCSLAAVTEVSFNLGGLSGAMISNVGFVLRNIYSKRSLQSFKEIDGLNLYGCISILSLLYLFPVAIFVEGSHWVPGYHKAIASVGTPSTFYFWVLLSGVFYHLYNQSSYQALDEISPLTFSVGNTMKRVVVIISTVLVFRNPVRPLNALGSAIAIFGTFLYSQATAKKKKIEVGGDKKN

[2] = substrate: O=P(O)(O)O; assay: cells, lysate or membranes; conditions: external pH 7.0, internal pH 7.8; counter-exchange; labelled compound

- Ki(app) [1]: 3.76 ± 0.39 mM
Molecule: C=C(OP(=O)(O)O)C(=O)O [PEP]

B1: XPT (xylulose 5-phosphate/phosphate translocator) (Arabidopsis thaliana) (protein)
chain: T1 sequence (Q9LF61 1-417 limits assumed)
- Km [2]: 0.40 ± 0.07 mM
